This is an account of results in US10988730B2, “Sand worm lyophilisate and uses thereof” (HEMARINA, priority 2013, dated 2021).

The subject of experiment [1] is Lactococcus lactis SB50. Kind of experiment: Flask culture of Lactococcus lactis SB50, optical density. It counts as cell-based. The protocol:
(§1) Sample Preparation • i) Flask culture: dissolution of the powders at 200 g/l then filtration of the supernatant and addition to the flasks. • ii) Bioreactor culture: direct addition to the reactors in a proportion of 1 g/l of powder before autoclaving.
Culture Conditions • i) Flask (100 ml, 0.5 and 11) culture:
(§2) The strain used is a strain of Lactococcus lactis SB50.
The tests were carried out overnight (16-18 h) at 30° C. with shaking at 180 rpm.
The composition of the culture medium for the strain is the following: glucose (1%), maltose (0.1%), yeast extract (2%) and minerals.
The culture conditions are the following: filling to 10% useful volume; a positive control with addition of hemin (hemoglobin of bovine origin) at 10 ppm final concentration is used.
(§3) The HEMARINA samples (powders in solution) were added post-sterilization after centrifugation. • ii) Bioreactor (11 useful volume) culture:
(§4) The optical density (OD) at 600 nm is measured for each culture.

The subject of experiment [2] is Lactococcus lactis SB50. Kind of experiment: Bioreactor culture of Lactococcus lactis SB50 (OD, dry weight, NH4OH volume, viability). The experiment is classed as cell-based. The protocol: as §1, §2, §3
The tests were carried out overnight (15-16 h) at 30° C.
The composition of the culture medium for the strain is identical to that of the flasks, with an addition of 0.01% antifoam.
The culture conditions are the following: filling to 60% useful volume, pO2 regulated at 20% or 80% and pH regulated at 6.
1 g/l of powder are added directly to the culture medium before autoclaving.
as §4

[3] abbreviates: overnight (15-16 h), 30° C., 1 g/l of powder.

Regarding hemin, the active concentration entry in the experiment with Lactococcus lactis SB50 [1] (equivalent to that of hemin) was “approximately 0.25 ppm”. For the same substance, the “OD at 600 nm” value with Lactococcus lactis SB50 [1] (overnight (16-18 h), 30° C., 180 rpm, hemin 10 ppm final concentration) was determined as 4.5; in the experiment on Lactococcus lactis SB50 [2] (overnight (15-16 h), 30° C., pH 6, 1 g/l of powder) it was 10.9. In the experiment with Lactococcus lactis SB50 [2] (setting [3]), the Dry weight amounted to 3.4 g/L. Also, the Viability with Lactococcus lactis SB50 [2] (setting [3]) worked out at 5.03E+09 CFU/ml. For the same substance, in the experiment with Lactococcus lactis SB50 [2] (pH regulated at 6, 1 g/l of powder), the “Volume NH4OH (corresponding to production of lactic acid)” value was determined as 12.3 mL.
